Each block holds one molecule with its values, some of them ahead of it.
Molecular target: T1, FXR (Rattus norvegicus, UniProt Q62735)
T1 sequence (Q62735 1-469): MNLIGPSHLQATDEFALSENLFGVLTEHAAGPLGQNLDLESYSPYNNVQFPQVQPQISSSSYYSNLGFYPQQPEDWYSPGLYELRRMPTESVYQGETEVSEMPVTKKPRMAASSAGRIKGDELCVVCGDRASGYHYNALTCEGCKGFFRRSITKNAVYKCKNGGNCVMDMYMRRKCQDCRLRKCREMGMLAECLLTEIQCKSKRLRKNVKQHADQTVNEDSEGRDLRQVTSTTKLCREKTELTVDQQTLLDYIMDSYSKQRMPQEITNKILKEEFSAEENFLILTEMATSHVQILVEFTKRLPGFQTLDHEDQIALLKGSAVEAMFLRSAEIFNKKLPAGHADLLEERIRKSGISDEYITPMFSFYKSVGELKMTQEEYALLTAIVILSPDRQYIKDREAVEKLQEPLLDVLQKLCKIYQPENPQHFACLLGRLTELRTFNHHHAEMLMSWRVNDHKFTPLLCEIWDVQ
T1 sequence (P28700 1-467 partner): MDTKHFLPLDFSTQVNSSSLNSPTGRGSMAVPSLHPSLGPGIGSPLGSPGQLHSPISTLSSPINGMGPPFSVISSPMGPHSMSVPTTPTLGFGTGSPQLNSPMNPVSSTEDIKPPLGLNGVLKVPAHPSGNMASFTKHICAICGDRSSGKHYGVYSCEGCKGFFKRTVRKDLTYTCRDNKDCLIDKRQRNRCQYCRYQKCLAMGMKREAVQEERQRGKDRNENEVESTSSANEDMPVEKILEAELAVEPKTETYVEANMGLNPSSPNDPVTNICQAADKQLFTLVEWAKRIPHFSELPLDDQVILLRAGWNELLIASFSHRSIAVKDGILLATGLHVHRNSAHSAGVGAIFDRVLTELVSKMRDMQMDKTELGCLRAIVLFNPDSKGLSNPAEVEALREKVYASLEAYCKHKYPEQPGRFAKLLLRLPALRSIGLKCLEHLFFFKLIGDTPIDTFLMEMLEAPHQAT
Test: cell-based
Settings: for FXR-dependent transcription, induction: 7.5 μM
Procedure: These experiments employed a mammalian cell culture system using Chinese hamster ovary cells (CHO) to evaluate the transcriptional function of Drosophila melanogaster EcR and USP using methods described previously (U.S. Patent Application Publication No: 2005/0049230; Henrich et al, 2003). Cells were seeded in 6-well polypropylene culture plates (Falcon) with 10^5 cells per well on the day prior to transfection. Transfection was subsequently performed using either calcium phosphate (Kitareewan et al., 1996, Mol. Biol. Cell, 7:1153-1196) or a GenePorter reagent (Gene Therapy Systems, Inc; San Diego, Calif.) following manufacturer's protocols. Each well received 1.25 μg of (EcRE)5-ΔMTV-CAT (five copies of the hsp27 EcRE inserted into an mouse mammary tumor virus (MTV) promoter upstream of the chloramphenicol acetyltransferase (CAT) gene) or (EcRE)5-ΔMTV-LUC (the same promoter attached to firefly luciferase), 1.25 μg of pCH111 (SV40 early promoter linked to the β-galactosidase gene) to normalize CAT activity, and 0.25 μg of each expression plasmid (EcR, FXR, RXR, USP) that was tested. The cells were incubated with plasmid DNA for seven hours and then washed with 1×PBS. Muristerone A (murA; Alexis Biochemicals) or 20-hydroxyecdysone (20E; Sigma) dissolved in ethanol to a concentration of 10 mM was diluted as necessary to the final assay concentration (FAC) in 2 ml of fresh incubation medium that was then applied to the cells. Similarly, JHIII (Sigma) was dissolved in dimethyl sulfoxide (DMSO) to a concentration of […] and diluted into the incubation medium to its final assay concentration (20, 40, 80, 160 μM). […] A corresponding volume of ethanol and DMSO were added to control cells for all experiments. For all experiments, the cells were allowed to incubate with the medium for 24 hours before collection and cell lysates were prepared by described methods (Kitareewan et al., 1996). Both β-galactosidase and CAT reporter activity were measured based on previously used methods (Kitareewan et al, 1996). Luciferase assays using luciferrin followed the specifications of the manufacturer.
Transcriptional activity, measured as ^14C-chloramphenicol counts (for measuring CAT activity) or relative luciferase activity (RLU) was quantified for each cell lysate. The counts were then normalized by adjusting for differences in β-galactosidase activity, since β-galactosidase expression is controlled by a constitutive promoter and provides an estimate of cell mass. Data were normalized as fold-induction based on differences in reporter gene activity between hormonally treated and control cells.
In these experiments, candidate juvenoids were tested for their ability to activate FXR mediated transcription by transfecting Chinese hamster ovary (CHO) cells using the FXR plasmid, mouse RXRα, and the ΔMTV-(EcRE)5-CAT reporter as described herein. An RXR-dependent CRBPII-CAT reporter plasmid was employed in parallel assays to discern activators specific for this receptor.

[1] = dose 20 μM, 1 = no increase over vehicle

Molecule: CC(C)CCC[C@@H](C)[C@H]1CC[C@H]2[C@@H]3C(=O)C=C4C[C@@H](O)CC[C@]4(C)[C@H]3CC[C@]12C [7-ketocholesterol]
- FXR-dependent transcription, induction: not

Molecule: C[C@@]12CCc3occc3[C@H]1CC[C@@]13C[C@@H](CC[C@H]12)[C@@](O)(CO)C3 [cafestol]
- FXR ACTIVITY (fold-induction) [1]: 12 fold-induction

Molecule: CC(C)CCC[C@](C)(O)[C@H]1CC[C@H]2[C@@H]3CC=C4C[C@@H](O)CC[C@]4(C)[C@H]3CC[C@@]21C [20α-hydroxycholesterol]
- FXR-dependent transcription, induction: 10 fold

Molecule: COc1cc2c(cc1OC)[C@@H]1C(=O)c3ccc(O)c(CC=C(C)C)c3O[C@@H]1CO2 [rotenonic acid]
- FXR-dependent CAT activity, induction (20 μM): 20 fold
- FXR ACTIVITY (fold-induction) [1]: 20 fold-induction

- FXR ACTIVITY (fold-induction) (dose 150 μM): 10 fold-induction
Molecule: CC(=O)/C=C/C1=C(C)CCCC1(C)C [β-ionone]

Molecule: toxaphenes
- FXR-dependent CAT activity, induction (5 μM): 9 fold

Molecule: CCOC(=O)C=C(C)CCCC(C)(Cl)CCCC(C)(C)Cl (stereo not shown) [ZR232, ethyl ester of 7,11-dichloro-2-ene farnesoic acid]
- FXR-dependent CAT activity, induction (50 μM): 5 fold

- FXR-dependent activity, induction (400 μM): 3 fold
Molecule: OCCc1cccc(O)c1 [3-hydroxyphenethyl alcohol, 3-hydroxyphenethlyl alcohol]

- FXR ACTIVITY (fold-induction) (dose not given, 1 = no increase over vehicle): 1 fold-induction
- FXR-dependent activity, induction (dose not stated): not activated
Molecule: COc1cc(O)c(CC=C(C)C)c(O)c1C(=O)/C=C/c1ccc(O)cc1 [Xanthohumol]

- FXR-dependent activity, induction (400 μM): 3 fold
Molecule: OCCc1ccc(O)cc1 [4-hydroxyphenethyl alcohol, 4-hydroxyphenethlyl alcohol]

- FXR-dependent activity, induction (dose not stated): ineffective
Molecule: O=c1[nH]c(=O)c2[nH]cnc2[nH]1 [xanthine]

- FXR ACTIVITY (fold-induction) (dose 300 μM, 1 = no increase over vehicle): 4 fold-induction
- FXR-dependent activity, induction (dose not stated): 4 fold
Molecule: C=C(C)[C@@H]1CC=C(CO)CC1 [perillyl alchol, perillyl alcohol]

- FXR-dependent activity, induction (800 μM): two-fold
- FXR ACTIVITY (fold-induction) (dose 400 μM): 402 fold-induction
Molecule: CC1=CCC(C(C)(C)O)CC1 (stereo not drawn) [α-terpineol]

- FXR-dependent activity, induction (0.5 mM): inactive
Molecule: CC1CCC(C(C)C)C(O)C1 (stereo not shown) [menthol]

Molecule: COc1c2occc2cc2ccc(=O)oc12 [8-methoxypsoralen]
- FXR-dependent CAT activity, induction (50 μM): inactive

Molecule: CC(C)(O)/C=C/C(=O)[C@](C)(O)[C@H]1[C@H](O)C[C@@]2(C)[C@@H]3CC=C4[C@@H](C=C(O)C(=O)C4(C)C)[C@]3(C)C(=O)C[C@]12C [cucurbitacin I]
- IC50 (read-out: IC50, inhibition of farnesol-induced FXR activity, data not shown): ~50 nM

Molecule: CC(C)CC[C@H](O)[C@@H](C)[C@H]1CC[C@H]2[C@@H]3CC=C4C[C@@H](O)CC[C@]4(C)[C@H]3CC[C@]12C [22S-hydroxycholesterol]
- FXR-dependent transcription, induction: not

- FXR-dependent activity, induction (dose not stated): ineffective
Molecule: Nc1ncnc2nc[nH]c12 [adenine]

Molecule: O=C(/C=C/c1ccc(O)c(O)c1)O[C@H](Cc1ccc(O)c(O)c1)C(=O)O [rosemarinic acid]
- FXR-dependent activity, induction (dose not stated): ineffective

Molecule: CC(C)=CCC/C(C)=C/COc1c2ccoc2cc2oc(=O)ccc12 [bergamotin]
- FXR-dependent activity, induction (25 μM): 8 fold
- FXR ACTIVITY (fold-induction) (dose 25 μM): 10 fold-induction

- FXR-dependent CAT activity, induction (50 μM): unresponsive
Molecule: O=C1c2c(O)cc(O)cc2O[C@H](c2ccc(O)c(O)c2)[C@H]1O [taxifolin]

Molecule: CC1=C[C@]23C(=O)[C@@H](C=C(CO)[C@@H](O)[C@]2(O)[C@H]1O)[C@H]1[C@@H](C[C@H]3C)C1(C)C [ingenol]
- FXR-dependent activity, induction (dose not stated): inactive

Molecule: CC(=O)/C=C/C1C(C)=CCCC1(C)C (stereo not drawn) [α-ionone]
- FXR ACTIVITY (fold-induction) (dose 150 μM): 10 fold-induction

- FXR-dependent activity, induction (dose not stated): inactive
Molecule: COC1=C(OC)C(=O)C(C/C=C(\C)CC/C=C(\C)CC/C=C(\C)CC/C=C(\C)CC/C=C(\C)CC/C=C(\C)CC/C=C(\C)CC/C=C(\C)CCC=C(C)C)=C(C)C1=O [U9]

Molecule: CCCCCc1cc(O)c2c(c1)OC(C)(C)[C@@H]1CC=C(C)C[C@@H]21 (single isomer, unassigned) [Δ^8-isomer]
- FXR-dependent CAT activity, induction (15 μM): not

Molecule: CNC(=O)Oc1cccc2ccccc12 [carbaryl]
- FXR-dependent activity, induction (dose not stated): inactive

Molecule: O=C1C2(Cl)C3(Cl)C4(Cl)C(Cl)(Cl)C5(Cl)C3(Cl)C1(Cl)C5(Cl)C24Cl (stereo not shown) [kepone]
- FXR-dependent CAT activity, induction (5 μM): 12 fold

- FXR-dependent activity, induction (dose not stated): inactive
Molecule: COC1=C(OC)C(=O)C(C/C=C(\C)CC/C=C(\C)CC/C=C(\C)CC/C=C(\C)CC/C=C(\C)CC/C=C(\C)CC/C=C(\C)CC/C=C(\C)CC/C=C(\C)CCC=C(C)C)=C(C)C1=O [U10]

Molecule: C=CCC1=C(C)C(OC(=O)[C@@H]2[C@@H](C=C(C)C)C2(C)C)CC1=O (stereo partly shown) [bioallethrin]
- FXR-dependent activity, induction (25 μM): 14 fold

Molecule: CC(C)(O)/C=C/C(=O)[C@](C)(O)[C@H]1[C@H](O)C[C@@]2(C)[C@@H]3CC=C4[C@@H](C[C@H](O)C(=O)C4(C)C)[C@]3(C)C(=O)C[C@]12C [cucurbitacin D]
- suppression of FXR-dependent activity promoted by CDCA (1 μM cucurbitacin D, 40 μM CDCA): 58 fold
- suppression of FXR-dependent activity promoted by JH III (1 μM cucurbitacin D, 40 μM JH III): 7 fold

Molecule: COC1=C(OC)C(=O)C(CC=C(C)C)=C(C)C1=O [U1, Ubiquinone-1]
- inhibition of farnesol-induced FXR-dependent activity (10 μM): completely inhibited

- FXR-dependent activity, induction (dose not stated): ineffective
Molecule: COc1cc(/C=C/C(=O)CC(=O)/C=C/c2ccc(O)c(OC)c2)ccc1O [curcumin]

- FXR-dependent CAT activity, induction (50 μM): unresponsive
Molecule: O=c1c(-c2ccc(O)cc2)coc2cc(O)cc(O)c12 [genistein]

- FXR-dependent activity, induction (1 mM): no effect
Molecule: CC/C=C\C[C@H]1C(=O)CC[C@@H]1CC(=O)O [jasmonic acid]

Molecule: C=C(C)[C@@]12O[C@@]3(c4ccccc4)O[C@@H]1[C@@H]1[C@@H]4O[C@]4(CO)[C@@H](O)[C@]4(O)C(=O)C(C)=C[C@H]4[C@@]1(O3)[C@H](C)[C@H]2OC(=O)/C=C/C=C/c1ccccc1 [mezerein]
- FXR-dependent activity, induction (10 μM): 3 fold

Molecule: CC(C)=CCC/C(C)=C/CC/C(C)=C/CC[C@]1(C)CCc2cc(O)c(C)c(C)c2O1 [γ-tocotrienol]
- FXR ACTIVITY (fold-induction) [1]: 1 fold-induction

Molecule: O=c1c(O)c(-c2ccc(O)c(O)c2)oc2c(O)c(O)cc(O)c12 [gossypetin]
- FXR-dependent CAT activity, induction (50 μM): unresponsive

- FXR-dependent activity, induction (1 mM): 4 fold
Molecule: Nc1ncnc2c1nc(Br)n2[C@@H]1O[C@@H]2COP(=O)(O)O[C@H]2[C@H]1O [8-Br-cAMP]

Molecule: aroclor 1254
- FXR-dependent CAT activity, induction (5 μM): 5 fold

- FXR-dependent activity, induction (0.5 mM): 5 fold
Molecule: CC12CCC(C1)C(C)(C)C2O (stereo not shown) [fenchyl alcohol]

- FXR-dependent CAT activity, induction (250 μM): inactive
- FXR ACTIVITY (fold-induction) (dose 100 μM, 1 = no increase over vehicle): 1 fold-induction
Molecule: O=C(O)/C=C/c1ccc(O)c(O)c1 [caffeic acid]

- FXR-dependent activity, induction (1 mM): 4 fold
Molecule: CCCC(=O)Nc1ncnc2c1ncn2[C@@H]1O[C@@H]2COP(=O)(O)O[C@H]2[C@H]1OC(=O)CCC [dibutyryl cAMP]

Reference: patent US8637237B2, “Methods, compositions, and systems for the identification of species-specific or developmental stage-specific insecticides” (The University of North Carolina at Greensboro, priority 2003, dated 2014)
